# Test results: patent US10508104B2, “6-hydroxy-5-(phenyl/heteroarylsulfonyl)pyrimidin-4(1H)-one as APJ agonists” (Bristol-Myers Squibb Company, priority 2016, dated 2019)
# Target: human APJ receptor (Homo sapiens (Human), UniProt P35414)
# Assay: Intracellular cAMP accumulation assay (APJ hcAMP, HTRF)
# Format: cell-based
# Settings: HEK293 cells stably expressing human APJ receptor; inhibition of forskolin-mediated cAMP production; read-out: Human APJ cAMP EC50 Potency range
# Outline: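 HEK293 cells stably expressing human APJ, 5,000 per well, incubated 30 min at rt with compound, […] and 2 μM forskolin. cAMP measured by HTRF against a cAMP standard curve as inhibition of forskolin-driven production. EC50 from variable-slope sigmoidal fit.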
# human APJ receptor, sequence (P35414 whole entry): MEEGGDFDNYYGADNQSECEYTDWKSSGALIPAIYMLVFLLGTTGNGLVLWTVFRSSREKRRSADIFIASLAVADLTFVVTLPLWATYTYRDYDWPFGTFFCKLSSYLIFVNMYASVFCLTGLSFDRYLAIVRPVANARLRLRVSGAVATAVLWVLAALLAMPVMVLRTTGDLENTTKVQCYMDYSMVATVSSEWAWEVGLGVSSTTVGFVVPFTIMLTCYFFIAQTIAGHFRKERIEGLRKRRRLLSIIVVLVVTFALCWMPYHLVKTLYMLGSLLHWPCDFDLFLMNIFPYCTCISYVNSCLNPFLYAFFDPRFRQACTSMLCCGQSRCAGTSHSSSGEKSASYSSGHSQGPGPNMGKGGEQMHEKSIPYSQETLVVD
row,EC50,SMILES
1,10 to 100 nM,"COC[C@@H](c1ccccc1)n1c(CCC(C)C)nc(=O)c(S(=O)(=O)c2ccc(Br)cc2)c1O [Example 184, (R)-5-((4-Bromophenyl)sulfonyl)-6-hydroxy-2-isopentyl-3-(2-methoxy-1-phenylethyl)pyrimidin-4(3H)-one]"
2,0.01 to 10 nM,"COC[C@@H](c1ccccc1)n1c(CCC(C)C)nc(=O)c(S(=O)(=O)c2ccc(-c3ccnc(F)c3C)cc2)c1O [Example 189, (R)-5-((4-(2-Fluoro-3-methylpyridin-4-yl)phenyl)sulfonyl)-6-hydroxy-2-isopentyl-1-(2-methoxy-1-phenylethyl)pyrimidin-4(1H)-one]"

# Same assay, conditions: human APJ, intracellular cAMP accumulation; read-out: Human APJ cAMP EC50 Potency range
row,SMILES,EC50
1,"CCCCc1nc(=O)c(S(=O)(=O)c2ccc(Br)cc2)c(O)n1[C@H](C)c1ccc(OC)cc1 [Example 185, 5-(4-bromobenzenesulfonyl)-2-butyl-6-hydroxy-1-[(1R)-1-(4-methoxyphenyl)ethyl]-1,4-dihydropyrimidin-4-one]",100 to 300 nM
2,"CCCCc1nc(O)c(S(=O)(=O)c2ccc(Br)cc2)c(=O)n1C(C)c1cccnc1 (centres unmarked) [Example 187, 5-(4-bromobenzenesulfonyl)-2-butyl-6-hydroxy-3-[1-(pyridin-3-yl)ethyl]-3,4-dihydropyrimidin-4-one]",100 to 300 nM
3,"CCCCc1nc(=O)c(S(=O)(=O)c2ccc(-c3cncc(F)c3)cc2)c(O)n1[C@@H](CC)c1cccc(Cl)c1 [Example 197, 2-butyl-1-[(1S)-1-(3-chlorophenyl)propyl]-5-[4-(5-fluoropyridin-3-yl)benzenesulfonyl]-6-hydroxy-1,4-dihydropyrimidin-4-one]",0.01 to 10 nM
4,"CCCCc1nc(=O)c(S(=O)(=O)c2ccc(-c3ccc(F)nc3C)cc2)c(O)n1[C@@H](CC)c1cccc(Cl)c1 [Example 198, 2-butyl-1-[(1S)-1-(3-chlorophenyl)propyl]-5-[4-(6-fluoro-2-methylpyridin-3-yl)benzenesulfonyl]-6-hydroxy-1,4-dihydropyrimidin-4-one]",0.01 to 10 nM
5,"COC[C@@H](c1ccccc1)n1c(CCC(C)C)nc(=O)c(S(=O)(=O)c2ccc(-c3ccc(F)nc3)cc2)c1O [Example 199, 5-[4-(6-fluoropyridin-3-yl)benzenesulfonyl]-6-hydroxy-1-[(1R)-2-methoxy-1-phenylethyl]-2-(3-methylbutyl)-1,4-dihydropyrimidin-4-one]",0.01 to 10 nM
6,"CCCCc1nc(=O)c(S(=O)(=O)c2ccc(-c3ccc(F)nc3)cc2)c(O)n1[C@@H](CC)c1cccc(Cl)c1 [Example 200, 2-butyl-1-[(1S)-1-(3-chlorophenyl)propyl]-5-[4-(6-fluoropyridin-3-yl)benzenesulfonyl]-6-hydroxy-1,4-dihydropyrimidin-4-one]",0.01 to 10 nM
7,CCCCc1nc(=O)c(S(=O)(=O)c2ccc(-c3ccncc3C)cc2)c(O)n1C(c1ccccc1)C1CC1 (centres unmarked) [Example 201],0.01 to 10 nM
8,"CCCCc1nc(=O)c(S(=O)(=O)c2ccc(-c3ccc(F)nc3C)cc2)c(O)n1C(c1ccccc1)C1CC1 (centres unmarked) [Example 202, 2-butyl-1-[cyclopropyl(phenyl)methyl]-5-[4-(6-fluoro-2-methylpyridin-3-yl)benzenesulfonyl]-6-hydroxy-1,4-dihydropyrimidin-4-one]",0.01 to 10 nM
9,"CCCCc1nc(=O)c(S(=O)(=O)c2ccc(-c3ccnc(F)c3C)cc2)c(O)n1C(C)c1cccnc1 (centres unmarked) [Example 203, 2-butyl-5-[4-(2-fluoro-3-methylpyridin-4-yl)benzenesulfonyl]-6-hydroxy-1-[1-(pyridin-3-yl)ethyl]-1,4-dihydropyrimidin-4-one]",0.01 to 10 nM
10,"CCCCc1nc(=O)c(S(=O)(=O)c2ccc(-c3ccnc(F)c3C)cc2)c(O)n1C(c1ccccc1)C1CC1 (centres unmarked) [Example 204, 2-butyl-1-[cyclopropyl(phenyl)methyl]-5-[4-(2-fluoro-3-methylpyridin-4-yl)benzenesulfonyl]-6-hydroxy-1,4-dihydropyrimidin-4-one]",0.01 to 10 nM
11,"CCCCc1nc(=O)c(S(=O)(=O)c2ccc(-c3ccncc3C)cc2)c(O)n1C(C)c1cccnc1 (centres unmarked) [Example 205, 2-butyl-6-hydroxy-5-[4-(3-methylpyridin-4-yl)benzenesulfonyl]-1-[1-(pyridin-3-yl)ethyl]-1,4-dihydropyrimidin-4-one]",0.01 to 10 nM
12,"CCCCc1nc(=O)c(S(=O)(=O)c2ccc(-c3cccnc3C)cc2)c(O)n1C(c1ccccc1)C1CC1 (centres unmarked) [Example 206, 2-butyl-1-[cyclopropyl(phenyl)methyl]-6-hydroxy-5-[4-(2-methylpyridin-3-yl)benzenesulfonyl]-1,4-dihydropyrimidin-4-one]",0.01 to 10 nM
13,"CC[C@@H](c1ccccc1)n1c(CCC(C)C)nc(=O)c(S(=O)(=O)c2ccc(-c3ccnc(F)c3C)cc2)c1O [Example 207, 5-[4-(2-fluoro-3-methylpyridin-4-yl)benzenesulfonyl]-6-hydroxy-2-(3-methylbutyl)-1-[(1S)-1-phenylpropyl]-1,4-dihydropyrimidin-4-one]",0.01 to 10 nM
14,"CC[C@@H](c1ccccc1)n1c(CCC(C)C)nc(=O)c(S(=O)(=O)c2ccc(-c3ccc(F)nc3C)cc2)c1O [Example 208, 5-[4-(6-fluoro-2-methylpyridin-3-yl)benzenesulfonyl]-6-hydroxy-2-(3-methylbutyl)-1-[(1S)-1-phenylpropyl]-1,4-dihydropyrimidin-4-one]",0.01 to 10 nM

# Second part, the compound after the results:
row,EC50,SMILES
1,0.01 to 10 nM,"COC[C@@H](c1ccccc1)n1c(CC2CC2)nc(=O)c(S(=O)(=O)c2ccc(-c3ccncc3C)cc2)c1O [Example 178, 2-(cyclopropylmethyl)-6-hydroxy-1-[(1R)-2-methoxy-1-phenylethyl]-5-[4-(3-methylpyridin-4-yl)benzenesulfonyl]-1,4-dihydropyrimidin-4-one]"
2,0.01 to 10 nM,"COC[C@@H](c1ccccc1)n1c(CC2CC2)nc(=O)c(S(=O)(=O)c2ccc(-c3ccnc(F)c3C)cc2)c1O [Example 179, 2-(cyclopropylmethyl)-5-[4-(2-fluoro-3-methylpyridin-4-yl)benzenesulfonyl]-6-hydroxy-1-[(1R)-2-methoxy-1-phenylethyl]-1,4-dihydropyrimidin-4-one]"
3,0.01 to 10 nM,"COC[C@@H](c1ccccc1)n1c(CC2CC2)nc(=O)c(S(=O)(=O)c2ccc(-c3cccnc3C)cc2)c1O [Example 180, 2-(cyclopropylmethyl)-6-hydroxy-1-[(1R)-2-methoxy-1-phenylethyl]-5-[4-(2-methylpyridin-3-yl)benzenesulfonyl]-1,4-dihydropyrimidin-4-one]"
4,0.01 to 10 nM,"COC[C@@H](c1ccccc1)n1c(CC2CC2)nc(=O)c(S(=O)(=O)c2ccc(-c3cncc(F)c3)cc2)c1O [Example 181, 2-(cyclopropylmethyl)-5-[4-(5-fluoropyridin-3-yl)benzenesulfonyl]-6-hydroxy-1-[(1R)-2-methoxy-1-phenylethyl]-1,4-dihydropyrimidin-4-one]"
5,0.01 to 10 nM,"COC[C@@H](c1ccccc1)n1c(CC2CC2)nc(=O)c(S(=O)(=O)c2ccc(-c3ccc(F)nc3)cc2)c1O [Example 182, 2-(cyclopropylmethyl)-5-[4-(6-fluoropyridin-3-yl)benzenesulfonyl]-6-hydroxy-1-[(1R)-2-methoxy-1-phenylethyl]-1,4-dihydropyrimidin-4-one]"
6,0.01 to 10 nM,"COC[C@@H](c1ccccc1)n1c(CC2CC2)nc(=O)c(S(=O)(=O)c2ccc(-c3ccc(F)nc3C)cc2)c1O [Example 183, 2-(cyclopropylmethyl)-5-[4-(6-fluoro-2-methylpyridin-3-yl)benzenesulfonyl]-6-hydroxy-1-[(1R)-2-methoxy-1-phenylethyl]-1,4-dihydropyrimidin-4-one]"
7,0.01 to 10 nM,"COC[C@@H](c1ccccc1)n1c(CCC(C)C)nc(=O)c(S(=O)(=O)c2ccc(-c3cccnc3C)cc2)c1O [Example 190, 6-hydroxy-1-[(1R)-2-methoxy-1-phenylethyl]-2-(3-methylbutyl)-5-[4-(2-methylpyridin-3-yl)benzenesulfonyl]-1,4-dihydropyrimidin-4-one]"
8,0.01 to 10 nM,"COC[C@@H](c1ccccc1)n1c(CCC(C)C)nc(=O)c(S(=O)(=O)c2ccc(-c3ccncc3C)cc2)c1O [Example 191, 6-hydroxy-1-[(1R)-2-methoxy-1-phenylethyl]-2-(3-methylbutyl)-5-[4-(3-methylpyridin-4-yl)benzenesulfonyl]-1,4-dihydropyrimidin-4-one]"
9,0.01 to 10 nM,"CCCCc1nc(=O)c(S(=O)(=O)c2ccc(-c3ccncc3C)cc2)c(O)n1[C@@H](CC)c1cccc(Cl)c1 [Example 192, 2-butyl-1-[(1S)-1-(3-chlorophenyl)propyl]-6-hydroxy-5-[4-(3-methylpyridin-4-yl)benzenesulfonyl]-1,4-dihydropyrimidin-4-one]"
10,0.01 to 10 nM,"CCCCc1nc(=O)c(S(=O)(=O)c2ccc(-c3cccnc3C)cc2)c(O)n1[C@@H](CC)c1cccc(Cl)c1 [Example 193, 2-butyl-1-[(1S)-1-(3-chlorophenyl)propyl]-6-hydroxy-5-[4-(2-methylpyridin-3-yl)benzenesulfonyl]-1,4-dihydropyrimidin-4-one]"
11,0.01 to 10 nM,"CCCCc1nc(=O)c(S(=O)(=O)c2ccc(-c3ccnc(F)c3C)cc2)c(O)n1[C@@H](CC)c1cccc(Cl)c1 [Example 194, 2-butyl-1-[(1S)-1-(3-chlorophenyl)propyl]-5-[4-(2-fluoro-3-methylpyridin-4-yl)benzenesulfonyl]-6-hydroxy-1,4-dihydropyrimidin-4-one]"
12,0.01 to 10 nM,"COC[C@@H](c1ccccc1)n1c(CCC(C)C)nc(=O)c(S(=O)(=O)c2ccc(-c3cncc(F)c3)cc2)c1O [Example 195, 5-[4-(5-fluoropyridin-3-yl)benzenesulfonyl]-6-hydroxy-1-[(1R)-2-methoxy-1-phenylethyl]-2-(3-methylbutyl)-1,4-dihydropyrimidin-4-one]"
13,0.01 to 10 nM,"COC[C@@H](c1ccccc1)n1c(CCC(C)C)nc(=O)c(S(=O)(=O)c2ccc(-c3ccc(F)nc3C)cc2)c1O [Example 196, 5-[4-(6-fluoro-2-methylpyridin-3-yl)benzenesulfonyl]-6-hydroxy-1-[(1R)-2-methoxy-1-phenylethyl]-2-(3-methylbutyl)-1,4-dihydropyrimidin-4-one]"
